In patent US10301348B2, “Compounds for use in prevention and treatment of neurodegenerative diseases and pain” (Academia Sinica, priority 2013, dated 2019):
Entries after “also recorded” stand apart in the source; their conditions may differ.

What was measured:
TDP-43 transgenic mice = TDP-43 transgenic mice (ALS): rotarod and grip strength; assay type: in vivo
human A2AR = human A2AR (Homo sapiens, UniProt P29274); test: A2AR radioligand binding assay (3H-CGS21680)
Description: (§1) Binding of the indicated compounds to A2A adenosine receptor (A2AR) and an adenosine transporter (ENT1) was characterized using standard binding protocols.
(§2) Radioligand binding assays. Radioligand binding assays were performed by MDS Pharma Services Taiwan (Taipei, Taiwan) using standard binding protocols. For A2AR binding assays, membrane proteins collected from HEK293 cells overexpressing human A2AR were incubated in the reaction buffer [50 mM Tris-HCl (pH 7.4), 10 mM MgCl2, 1 mM EDTA, and 2 U/mL adenosine deaminase] containing ^3H-CGS21680 (50 nM) for 90 min at 25° C. Nonspecific binding was assessed in the presence of 50 μM adenosine-5′-N-ethylcarboxamide. […] Binding assays for adenosine transporters were conducted as described earlier. Membrane fractions collected from the cerebral cortex of Duncan Hartley-derived guinea pigs were incubated with ^3H-labeled 6-[(4-nitrobenzyl)thio]-9-β-D-ribofuranosylpurine (NBTI, 0.5 nM) for 30 min at 25° C. in the incubation buffer containing 50 mM Tris-HCl (pH 7.4). […] Reactions were terminated by filtration over GF/B glass fibers and washing with the reaction buffer.

[1] = test system: SCA3 transgenic mice expressing ataxin-3-Q79; test: SCA3 transgenic mice: rotarod test and NeuN staining of pontine nuclei; details: 4-month-old SCA3 transgenic mice
Description: (A) SCA3 transgenic mice were given drinking water containing vehicle (0.2% DMSO) or T1-11 (0.1 mg/ml) beginning at 4 weeks-old.
Behavioral test. Balance and coordination functions of mice were determined by performing rotarod test. Mice were placed on the moving drum of a rotarod apparatus (Accelerating Model, Ugo Basile Biological Research Apparatus), which was then accelerated until mouse fell from the drum onto a plate to stop the timer. Latency to fall was measured in four daily trials over the course of 4 days.
Immunohistochemical staining. Wild-type or SCA3 transgenic mice were anesthetized and perfused transcardially with 4% paraformaldehyde in PBS. Brain was equilibrated in Tissue-Tek embedding medium and frozen in liquid nitrogen. Coronal sections (20 μm) prepared by cryostat sectioning were permeabilized in 0.1% Triton X-100, and incubated at 4° C. for 48 hours with diluted anti-NeuN monoclonal antiserum (Chemicon). Subsequently, sections were washed and incubated with biotinylated horse anti-mouse IgG followed by incubation with avidin-biotin-horseradish peroxidase complex. The sections were then washed and developed in a diaminobenzidine solution. NeuN-positive neurons were visualized and counted by a Leica DM2500 microscope equipped with a Retiga-2000R CCD camera (QImaging) and a 3-axis computer-controlled MAC 600 motorized stage (Ludl Electronics) with the aid of StereoInvestigator software (MBF Bioscience). Each analysis included the processing of 15 brain sections per mouse.

[2] = target: T1, adenosine transporter (ENT1) (Cavia porcellus, UniProt H0V4R7); test: Adenosine transporter (ENT1) radioligand binding assay (3H-NBTI)
T1 sequence (H0V4R7 1-461): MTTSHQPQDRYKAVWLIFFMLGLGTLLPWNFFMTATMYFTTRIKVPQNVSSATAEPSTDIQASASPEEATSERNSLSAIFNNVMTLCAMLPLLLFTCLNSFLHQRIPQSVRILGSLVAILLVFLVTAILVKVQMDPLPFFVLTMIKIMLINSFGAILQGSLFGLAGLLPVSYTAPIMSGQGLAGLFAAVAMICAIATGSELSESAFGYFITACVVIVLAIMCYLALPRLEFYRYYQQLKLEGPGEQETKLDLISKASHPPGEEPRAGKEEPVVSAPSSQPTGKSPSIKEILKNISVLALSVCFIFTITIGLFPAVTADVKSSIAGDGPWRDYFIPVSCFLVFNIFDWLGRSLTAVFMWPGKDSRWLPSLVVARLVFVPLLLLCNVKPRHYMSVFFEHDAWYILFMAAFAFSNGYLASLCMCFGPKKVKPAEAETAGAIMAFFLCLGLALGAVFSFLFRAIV
Description: as §1, §2

[3] = Oral bioavailability / pharmacokinetic study in ICR mice; assay type: in vivo
Description: To measure oral bioavailability of a test compound, blood samples were collected from male ICR mice (6 weeks old; 20-25 g) after oral (10 mg/kg) or intravenous (1 mg/kg) administrations of the test compound. The blood samples collected at the indicated periods were extracted with methanol containing 0.1% formic acid, and then 10 μL of each extracted sample were injected to UPLC-MSMS for quantitation.
Pharmacokinetic Study. The compound was administered as aqueous solutions in normal saline. Male ICR mice were purchased from BioLASCO Taiwan Co., Ltd. To measure oral bioavailability of test compounds (T1-11 and JMF3464), blood samples were collected from male ICR mice (6 weeks old; […]) after oral (10 mg/kg) or intravenous (1 mg/kg) administrations of test compounds. For T1-11, blood samples were collected at 2, 10, 30, 60, 120, 360 minutes after intravenous administration and at 15, 30, 45, 60, 120, 360 minutes after oral administration. For JMF3464, the blood samples were collected at 2, 10, 30, 60, 120, 240, 360, 480 minutes after intravenous administration and at 15, 30, 60, 90, 120, 240, 360, 480 minutes after oral administration. The blood samples were extracted by methanol with 0.1% formic acid, and then 10 μL of the extracted samples were injected to UPLC-MSMS to for quantitation.
The pharmacokinetic parameters were obtained using a pharmacokinetic program WinNonlin, fitting data to a noncompartmental model. […] The total plasma clearance (CL) was calculated as dose/AUCi.v.. The oral bioavailability (F) of the test compound by oral administration was calculated from the AUC0-∞ of the oral dose divided by the AUC0-∞ of the i.v. dose.

[4] = test system: mice treated with intermittent cold stress; test: Intermittent cold stress model of fibromyalgia; assay type: in vivo
Description: FIGS. 10A-C show the analgesic effect of JMF3464 on a mouse model of fibromyalgia. […] Open arrows indicate the time mice received acid injection. Black arrows indicate the time mice received T1-11 (p.o.). […] The analgesic effect of JMF3464 is dose-dependent. The effective dose started from 100 μg/kg (i.p.).
Intermittent cold stress model. The fibromyalgia model was developed by Ueda's group, in which mice were treated with intermittent cold stress for 2 days (Nishiyori and Ueda, 2008 Mol Pain. 4:52). Mice treated with intermittent cold stress developed long-lasting (>2 weeks) mechanical and thermal hyperalgesia. Analgesic effects of JMF3464 (i.p. or p.o.) were tested in these mice 5 days after intermittent cold stress. Mechanical hyperalgesia was assayed by testing the withdrawal response of mouse hindpaws to 0.2-mN von Frey filament stimulation.

NSC34 cells = test: TDP-43 mislocalization caused by AICAR (AMPK activation), immunostaining; assay type: cell-based; details: 30 μM, 1 h pretreatment then AICAR 1 mM for 24 hrs
Description: Cells were pretreated with JMF3464 (30 μM) for one hour, and then treated with AICAR (1 mM, Al) in the presence of JMF3464 for additional 24 hrs. TDP-43 (red) localization was analysed by immunostaining. The locations of nuclei were marked by Hochest (blue).
Cell culture and transfection. The motor neuron cell line (NSC34) was a generous gift from Dr. Neil Cashman (Brain Research Centre, The University of British Columbia, Canada), and cultured in a high-glucose Dulbecco's modified Eagle's medium (DMEM) containing 10% fetal calf serum (FCS), 2 mM L-glutamine, and 1% penicillin/streptomycin (Invitrogen GibcoBRL, Carlsbad, Calif., USA) at 37° C. under 5% CO2.

R6/2 mice = test: Transgenic mouse model (R6/2) of Huntington's disease: rotarod and lifespan; assay type: in vivo
Description: FIGS. 3A-B show the effect of JMF3464 on motor deficits and lifespan. […] Rotarod performance (A) and lifespan (B) of these mice were assessed. * p<0.05. *** p<0.005.
As the A2AR and ENT1 are located in the striatum and have been implicated in striatal function, we hypothesized that chronic treatment with JMF3464 would modulate the progression of HD. We tested the effect of JMF3464 in a transgenic mouse model (R6/2) of HD in which A2AR agonists have beneficial effects.
Animals and drug administration. Male R6/2 mice (Mangiarini et al., 1996 Cell. 87:493-506) and littermate controls were originally obtained from Jackson Laboratories (Bar Harbor, Me., USA), and mated to female control mice (B6CBAFI/J). Offspring were identified by a polymerase chain reaction (PCR) genotyping technique of genomic DNA extracted from tail tissues using primers located in the transgene (5′-[…]-3′; SEQ ID NO: 1, and 5′-GGCTGAGGAAGCTGAGGAG-3′; SEQ ID NO: 2) to ensure that the number of CAG repeats remained approximately 150. […] Body weights of mice were recorded once daily. […]
Rotarod performance. Motor coordination was assessed using a rotarod apparatus (UGO BASILE, Comerio, Italy) at a constant speed (12 rpm) over a period of 2 min (Carter et al., 1999 J Neurosci. 19:3248-3257). […] Latency to fall was recorded automatically. […]

PC12 cells = test: Serum deprivation-induced cell death, MTT assay; assay type: cell-based, Rat; details: serum-deprived PC12 cells, 24 h
Description: Serum-deprived PC12 cells were treated with or without the indicated reagent(s) for 24 h. Cell viability was expressed as a percentage of the results from MTT assays compared to the mean of a serum-containing control group. Data points represent the mean±SEM (n=3˜6).
Rat PC12 cells purchased from American Type Culture Collection (ATCC; Manassas, Va., USA) were maintained in DMEM supplemented with 10% horse serum and 5% FBS and incubated in a CO2 incubator (5%) at 37° C. LIPOFECTAMINE™ 2000 (Invitrogen) was used as a vehicle to transfer plasmids into cells according to the manufacture's protocol. Plasmids were kindly provided by Dr. Pulst (Department of Neurology, University of Utah, USA). Normally, 5 μg of DNA combined with 5 μl of LIPOFECTAMINE™ 2000 was applied to each well of 6-well plates. The plating number was (1˜1.5)×10^6 cells/well. After transfections for 6 h, cells were treated with reagents for another 24 h. Images were taken with a Zeiss Axiovert 200M inverted fluorescence microscope (Göttingen, Germany).
MTT assay. Survival was assessed by 3-(4,5-dimethylthiazol-2-yl)-2,5-diphenyl tetrazolium bromide (MTT) metabolism assay. […] After discarding the medium, DMSO was applied to the well to dissolve formazan crystals, and the absorbances at 570 and 630 nm in each well were measured on a micro-enzyme-linked immunosorbent assay (ELISA) reader.

[5] = 3.7, 1.25, 0.5 and 0.1 mg/kg/day, subcutaneous osmotic pump, vs control mice

Sequence of human A2AR (P29274 whole entry): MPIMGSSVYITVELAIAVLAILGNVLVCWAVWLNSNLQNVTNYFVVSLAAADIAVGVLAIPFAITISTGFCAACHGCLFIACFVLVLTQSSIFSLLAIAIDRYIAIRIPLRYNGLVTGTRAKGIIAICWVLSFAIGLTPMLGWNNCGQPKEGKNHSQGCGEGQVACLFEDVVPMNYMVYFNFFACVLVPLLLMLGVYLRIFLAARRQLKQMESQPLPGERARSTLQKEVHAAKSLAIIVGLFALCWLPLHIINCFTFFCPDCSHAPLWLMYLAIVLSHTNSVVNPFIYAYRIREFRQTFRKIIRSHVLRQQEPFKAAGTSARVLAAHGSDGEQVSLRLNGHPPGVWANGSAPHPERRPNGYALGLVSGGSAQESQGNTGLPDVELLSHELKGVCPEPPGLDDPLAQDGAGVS

Row | inhibition at 10 µM (human A2AR; read-out: inhibition of A2A receptor) [%] | inhibition at 10 µM ([2]; read-out: inhibition of adenosine transporter (ENT1)) [%] | Structure (SMILES) | grip strength (TDP-43 transgenic mice; [5]) | rotarod performance (TDP-43 transgenic mice; [5]) | dose showing the greatest benefit (TDP-43 transgenic mice; rotarod and grip strength) [mg/kg] | Ki (human A2AR) [µM] | pontine neuronal death (NeuN staining) ([1]; daily oral 1 mg per day) | rotarod performance ([1]; daily oral 1 mg per day) | Ki [2] [nM] | oral absorption relative to T1-11 ([3]; JMF3464 vs T1-11) | bioavailability ([3]; male, mouse, plasma, oral 10 mg/kg vs intravenous 1 mg/kg) [%] | effective dose (start) ([4]; i.p.) [µg/kg] | analgesic effect ([4]; i.p., dose-dependent, von Frey mechanical hyperalgesia) | analgesic effect, oral administration ([4]; p.o. 1 mg/kg) | rotarod performance / ataxia ([1]; daily 0.3 mg per day) | pontine neuronal death (NeuN staining) ([1]; daily oral 0.3 mg per day) | TDP-43 mislocalization (NSC34 cells) | motor coordination assessed by rotarod performance (R6/2 mice; R6/2 mice from 7 weeks old, 0.11 mg/kg/day, subcutaneous osmotic minipump, 6 weeks) | lifespan (R6/2 mice; R6/2 mice, sustained (long term) treatment) | apoptosis of PC12 cells caused by serum withdrawal (PC12 cells)
1 | – | – | OC[C@H]1O[C@@H](n2cnc3c(NCCc4c[nH]c5ccccc45)ncnc32)[C@H](O)[C@@H]1O [JMF1907, N^6-[2-(indol-3-yl)ethyl]adenosine] | statistical significance was reached at all points for all tested doses; also recorded: performed significantly better | statistical significance was reached at all points for 1.5 & 0.5 mg/kg, from 12-21 wk for 0.1 mg/kg, and 10-12 wk for 3.7 mg/kg; also recorded: performed significantly better | 1.25 | 4.39 | significantly prevented neuronal death in the pontine nuclei; also recorded: significantly alleviated pontine neuronal death | significantly improved rotarod performance | 3470 | – | – | – | – | – | – | – | – | – | – | –
2 | – | – | OC[C@H]1O[C@@H](n2cnc3c(NCc4ccc(Br)s4)ncnc32)[C@H](O)[C@@H]1O [JMF3464, N^6-[(5-bromothien-2-yl)methyl]adenosine] | – | – | – | 1.7 | – | – | 50 | more than 6 fold | 17.4 | ≥ 100 | showed an analgesic effect | showed an analgesic effect | greatly improved the rotarod performance; also recorded: alleviated the ataxia | significantly ameliorated neuronal death in the pontine nuclei; also recorded: alleviated | reduced TDP-43 mislocalization; also recorded: normalized TDP-43 mislocalization | counteracted the progressive deterioration in motor coordination | improved | –
3 | 54 | 96 | OC[C@H]1O[C@@H](n2cnc3c(NCc4ccc(Cl)s4)ncnc32)[C@H](O)[C@@H]1O [JMF3818, N^6-[(5-Chlorothien-2-yl)methyl]adenosine] | – | – | – | – | – | – | – | – | – | – | – | – | – | – | – | – | – | inhibited the apoptosis of PC12 cells caused by serum withdrawal
